For 25 compounds, kinase still bound, per cent of control results are on record in the kinase profiling compilation of Christmann-Franck et al. (2016).

Among the targets are CASK (human) (UniProt O14936); MTOR (human) (UniProt P42345); ABL1 (human) (UniProt P00519); WNK1 (human) (UniProt Q9H4A3); GSG2 (human) (UniProt Q8TF76); SGK1 (human) (UniProt O00141); RPS6KA3 KD2 (human) (UniProt P51812); WNK3 (human) (UniProt Q9BYP7); BUB1 (human) (UniProt O43683).
Holding throughout (experiment): KINOMEscan competition binding
What all share (conditions): compound 10.0 µM

The test system of experiment [1] is ABL1 (human), P00519 [Q252H].
The subject of experiment [2] is ABL1 (human), P00519 [T315I].

Each structure is given as a SMILES string.

Chain of CASK (human) (O14936 whole entry, looked up): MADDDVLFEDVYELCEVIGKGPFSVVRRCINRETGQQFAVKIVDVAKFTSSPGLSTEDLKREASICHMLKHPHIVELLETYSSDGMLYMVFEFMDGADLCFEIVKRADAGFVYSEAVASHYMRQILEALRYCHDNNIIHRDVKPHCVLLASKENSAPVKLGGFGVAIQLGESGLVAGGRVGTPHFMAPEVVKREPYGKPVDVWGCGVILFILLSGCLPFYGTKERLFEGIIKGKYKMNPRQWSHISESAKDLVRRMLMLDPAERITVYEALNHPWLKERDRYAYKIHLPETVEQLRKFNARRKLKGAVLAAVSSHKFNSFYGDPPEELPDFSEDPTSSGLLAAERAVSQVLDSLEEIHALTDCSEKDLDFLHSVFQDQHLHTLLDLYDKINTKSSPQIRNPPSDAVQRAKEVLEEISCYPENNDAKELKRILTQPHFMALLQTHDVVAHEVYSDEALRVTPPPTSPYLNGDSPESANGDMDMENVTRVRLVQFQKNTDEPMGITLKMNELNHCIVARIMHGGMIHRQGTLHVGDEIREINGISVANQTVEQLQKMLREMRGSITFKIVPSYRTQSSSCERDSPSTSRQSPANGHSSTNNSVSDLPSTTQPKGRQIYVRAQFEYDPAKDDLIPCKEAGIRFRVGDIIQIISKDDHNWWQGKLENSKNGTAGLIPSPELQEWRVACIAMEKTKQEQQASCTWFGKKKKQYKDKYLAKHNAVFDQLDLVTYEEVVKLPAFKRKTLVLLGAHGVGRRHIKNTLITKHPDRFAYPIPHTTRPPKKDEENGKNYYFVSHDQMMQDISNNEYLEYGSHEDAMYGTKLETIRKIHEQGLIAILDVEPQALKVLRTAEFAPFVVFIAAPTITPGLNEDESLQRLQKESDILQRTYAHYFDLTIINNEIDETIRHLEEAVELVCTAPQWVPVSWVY
Chain of RPS6KA3 KD2 (human) (P51812 whole entry, looked up): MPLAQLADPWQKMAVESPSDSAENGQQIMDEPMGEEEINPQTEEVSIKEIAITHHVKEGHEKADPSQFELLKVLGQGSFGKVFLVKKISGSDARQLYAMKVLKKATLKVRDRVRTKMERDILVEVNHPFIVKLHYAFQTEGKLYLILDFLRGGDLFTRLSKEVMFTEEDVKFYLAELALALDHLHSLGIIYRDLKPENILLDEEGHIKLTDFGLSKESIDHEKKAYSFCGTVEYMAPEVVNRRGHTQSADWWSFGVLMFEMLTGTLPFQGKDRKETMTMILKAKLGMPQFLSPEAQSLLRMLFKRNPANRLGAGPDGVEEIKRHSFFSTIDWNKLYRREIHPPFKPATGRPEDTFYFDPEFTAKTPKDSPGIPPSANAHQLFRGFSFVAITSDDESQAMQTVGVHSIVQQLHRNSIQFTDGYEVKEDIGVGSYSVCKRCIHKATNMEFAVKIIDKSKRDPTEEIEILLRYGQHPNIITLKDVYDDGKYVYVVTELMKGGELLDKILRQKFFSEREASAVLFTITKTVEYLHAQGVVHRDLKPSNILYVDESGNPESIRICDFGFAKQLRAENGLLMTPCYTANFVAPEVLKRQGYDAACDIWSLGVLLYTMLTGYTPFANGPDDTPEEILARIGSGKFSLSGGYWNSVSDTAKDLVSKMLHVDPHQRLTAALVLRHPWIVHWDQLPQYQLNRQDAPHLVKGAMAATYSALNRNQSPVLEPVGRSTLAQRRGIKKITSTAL
Chain of SGK1 (human) (O00141 whole entry, looked up): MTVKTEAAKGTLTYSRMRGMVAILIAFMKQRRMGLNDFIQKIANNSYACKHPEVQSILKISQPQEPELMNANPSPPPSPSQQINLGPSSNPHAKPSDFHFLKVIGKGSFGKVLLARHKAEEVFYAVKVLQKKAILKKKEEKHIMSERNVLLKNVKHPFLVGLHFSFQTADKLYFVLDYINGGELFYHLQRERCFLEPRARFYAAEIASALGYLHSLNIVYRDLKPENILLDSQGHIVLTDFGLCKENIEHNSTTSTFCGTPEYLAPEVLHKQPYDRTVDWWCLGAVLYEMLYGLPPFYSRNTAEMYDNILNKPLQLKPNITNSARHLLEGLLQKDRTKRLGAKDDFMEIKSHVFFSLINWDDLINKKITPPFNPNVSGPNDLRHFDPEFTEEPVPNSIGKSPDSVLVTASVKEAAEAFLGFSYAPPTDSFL
Chain of GSG2 (human) (Q8TF76 whole entry, looked up): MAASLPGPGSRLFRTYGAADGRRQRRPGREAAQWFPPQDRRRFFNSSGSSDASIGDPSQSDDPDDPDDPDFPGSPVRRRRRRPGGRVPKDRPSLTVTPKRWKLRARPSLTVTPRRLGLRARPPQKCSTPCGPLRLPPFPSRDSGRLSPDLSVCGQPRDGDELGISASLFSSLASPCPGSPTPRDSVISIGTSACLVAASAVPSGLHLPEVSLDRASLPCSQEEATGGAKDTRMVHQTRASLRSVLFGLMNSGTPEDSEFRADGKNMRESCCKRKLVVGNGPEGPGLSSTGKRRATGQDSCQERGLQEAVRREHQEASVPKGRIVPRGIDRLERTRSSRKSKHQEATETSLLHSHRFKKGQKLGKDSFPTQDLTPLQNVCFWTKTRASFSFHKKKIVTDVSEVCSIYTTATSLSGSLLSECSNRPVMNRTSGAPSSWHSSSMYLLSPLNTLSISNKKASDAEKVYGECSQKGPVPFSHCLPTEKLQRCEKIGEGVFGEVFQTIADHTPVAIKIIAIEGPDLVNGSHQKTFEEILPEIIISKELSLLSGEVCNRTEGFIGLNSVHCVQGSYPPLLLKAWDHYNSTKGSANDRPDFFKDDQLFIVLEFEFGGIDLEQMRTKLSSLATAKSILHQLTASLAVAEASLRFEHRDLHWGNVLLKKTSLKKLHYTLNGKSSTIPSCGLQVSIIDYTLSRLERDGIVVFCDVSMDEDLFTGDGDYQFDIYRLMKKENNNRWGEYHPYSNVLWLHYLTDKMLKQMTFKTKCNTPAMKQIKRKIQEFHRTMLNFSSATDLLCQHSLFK
Chain of BUB1 (human) (O43683 whole entry, looked up): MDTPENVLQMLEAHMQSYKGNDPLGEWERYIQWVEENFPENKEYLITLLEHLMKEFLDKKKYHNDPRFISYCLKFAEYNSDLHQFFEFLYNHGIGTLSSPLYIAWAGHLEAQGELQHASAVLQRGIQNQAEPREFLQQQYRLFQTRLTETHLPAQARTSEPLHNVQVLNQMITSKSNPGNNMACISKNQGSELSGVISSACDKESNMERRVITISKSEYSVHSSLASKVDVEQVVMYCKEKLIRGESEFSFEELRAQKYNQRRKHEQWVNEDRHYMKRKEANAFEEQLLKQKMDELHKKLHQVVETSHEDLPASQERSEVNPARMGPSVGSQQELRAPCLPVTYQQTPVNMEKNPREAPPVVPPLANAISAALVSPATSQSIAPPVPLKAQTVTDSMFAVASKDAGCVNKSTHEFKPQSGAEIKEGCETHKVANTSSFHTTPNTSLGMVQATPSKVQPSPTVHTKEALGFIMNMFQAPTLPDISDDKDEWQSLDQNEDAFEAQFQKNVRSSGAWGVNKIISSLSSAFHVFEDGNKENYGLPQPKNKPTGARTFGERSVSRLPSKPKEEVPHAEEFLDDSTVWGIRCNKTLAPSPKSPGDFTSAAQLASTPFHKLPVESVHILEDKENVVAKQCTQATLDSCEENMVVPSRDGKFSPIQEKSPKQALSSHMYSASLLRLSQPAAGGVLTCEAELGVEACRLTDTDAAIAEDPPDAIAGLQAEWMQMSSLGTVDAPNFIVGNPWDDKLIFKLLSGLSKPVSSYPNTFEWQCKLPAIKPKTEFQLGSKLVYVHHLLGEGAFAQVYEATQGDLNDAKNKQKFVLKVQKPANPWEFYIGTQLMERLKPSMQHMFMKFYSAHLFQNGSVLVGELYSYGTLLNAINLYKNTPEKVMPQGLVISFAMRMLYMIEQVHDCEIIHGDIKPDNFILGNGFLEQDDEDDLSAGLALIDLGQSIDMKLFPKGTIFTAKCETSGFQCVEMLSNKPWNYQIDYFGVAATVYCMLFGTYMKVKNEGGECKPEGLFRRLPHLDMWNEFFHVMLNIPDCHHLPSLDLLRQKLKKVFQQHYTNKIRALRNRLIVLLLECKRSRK

For the compound `CN(C)C/C=C/C(=O)Nc1cccc(Nc2ncc3c(n2)N(C)c2ccccc2C(=O)N3C)c1`, the figures for the kinase still bound, per cent of control at CASK (human) and on MTOR (human) were 39% and 74%, respectively.

For `CCC(=O)N1CCN(c2ccc(-n3c(=O)ccc4cnc5ccc(-c6cnc7ccccc7c6)cc5c43)cc2C(F)(F)F)CC1`, the kinase still bound, per cent of control on CASK (human) was 100%; on ABL1 (human), 60%.

With `COc1cc(C(=O)NC2CCN(C)CC2)ccc1Nc1ncc2c(n1)N(C1CCCC1)C(C)CC(=O)N2C` (stereo not drawn), the kinase still bound, per cent of control (on ABL1 (human); in experiment [1]; in experiment [2]) was 100% throughout.

As for `COc1cc(N2CCN(C)CC2)ccc1Nc1nc(N)c(C(=O)c2c(Cl)cccc2Cl)s1`, the kinase still bound, per cent of control is 35% on CASK (human) and 100% at MTOR (human).

`O=C(NC1CC1)c1cccc(-c2ccc3c(NC(=O)C4CC4)n[nH]c3c2)c1`: the kinase still bound, per cent of control at CASK (human) amounted to 82%; on MTOR (human), 100%.

Consider `CC[C@@H]1C(=O)N(C)c2cnc(Nc3ccc(C(=O)NC4CCN(C)CC4)cc3OC)nc2N1C1CCCC1`, for which the kinase still bound, per cent of control (at ABL1 (human); in experiment [1]; in experiment [2]) was 100% each time.

Turning to `Cc1ccc(C(=O)Nc2cccc(C(F)(F)F)c2)cc1Nc1cncc(C(N)=O)c1`, the kinase still bound, per cent of control (at ABL1 (human); in experiment [1]; in [2]) was 100% throughout.

Regarding `OCCCNc1cc(-c2ccnc(Nc3cccc(Cl)c3)n2)ccn1`, the kinase still bound, per cent of control (at ABL1 (human); in experiment [1]; in experiment [2]) was 100% throughout.

The compound `Nc1ccc(-c2ccc3ncc4ccc(=O)n(-c5cccc(C(F)(F)F)c5)c4c3c2)cn1` registered a kinase still bound, per cent of control at CASK (human) of 67%.

As for `O=C1Nc2ccc(I)cc2/C1=C/c1cc(Br)c(O)c(Br)c1`, the figures for the kinase still bound, per cent of control at CASK (human) and on MTOR (human) were 74% and 95%, respectively.

`CCCS(=O)(=O)Nc1ccc(F)c(C(=O)c2c[nH]c3ncc(-c4ccc(Cl)cc4)cc23)c1F`: the kinase still bound, per cent of control on CASK (human) worked out at 80%; at ABL1 (human) it was 57%; in experiment [2], 79%; on MTOR (human), 100%.

`C[C@@H](Oc1cc(-n2cnc3ccc(CN4CCN(C)CC4)cc32)sc1C(N)=O)c1ccccc1C(F)(F)F`: the results for the kinase still bound, per cent of control on CASK (human) and at MTOR (human) were 50% and 55%, respectively.

As for `C=CC(=O)Nc1cc(NC(=O)c2ccc(C)c(NC(=O)c3ccno3)c2)cc(C(F)(F)F)c1`, the values for the kinase still bound, per cent of control on CASK (human) and at MTOR (human) were 83% and 97%, respectively.

Regarding `Cn1c(=O)n(-c2ccc(C(C)(C)C#N)cc2)c2c3cc(-c4cnc5ccccc5c4)ccc3ncc21`, the kinase still bound, per cent of control (on ABL1 (human); in experiment [1]; in [2]) was 100% in each case.

Take `C=CC(=O)Nc1cccc(Nc2nc(N[C@H]3CC[C@H](N(C)C)CC3)nc3c2ncn3C(C)C)c1`: the results for the kinase still bound, per cent of control on CASK (human) and on MTOR (human) were 92% and 100%, respectively.

As to `CCOc1cc2ncc(C#N)c(Nc3ccc(OCc4ccccn4)c(Cl)c3)c2cc1NC(=O)/C=C/CN(C)C`, the kinase still bound, per cent of control turned out to be 100% on CASK (human), 100% at ABL1 (human), 71% in [1] and 100% on MTOR (human).

For the compound `C=CC(=O)Nc1cccc(Oc2nc(Nc3ccc(N4CCN(C)CC4)cc3OC)ncc2Cl)c1`, the kinase still bound, per cent of control (on ABL1 (human); in [1]; in experiment [2]) was 100% in each case.

For `Cc1ccc(NC(=O)c2cccc(C(C)(C)C#N)c2)cc1Nc1ccc2ncn(C)c(=O)c2c1`, the kinase still bound, per cent of control was found to be 96% on CASK (human) and 100% on MTOR (human).

Take `Cc1cc([C@@H](C)Nc2ccccc2C(=O)O)c2nc(N3CCOCC3)cc(=O)n2c1`: the kinase still bound, per cent of control at CASK (human) amounted to 92%; on MTOR (human), 11%.

For `CCN1CCN(Cc2ccc(Nc3ncc4c(n3)N(C)c3ccccc3C(=O)N4C)cc2C(F)(F)F)CC1`, the kinase still bound, per cent of control at CASK (human) was found to be 15%; on MTOR (human), 39%.

As to `O=C(O)c1ccc(Nc2ncc3c(n2)-c2ccc(Cl)cc2C(c2c(F)cccc2F)=NC3)cc1`, the kinase still bound, per cent of control on CASK (human) came to 91%; on MTOR (human), 75%.

Take `Cc1ccc2nc(NCCN)c3ncc(C)n3c2c1`: the kinase still bound, per cent of control on CASK (human) was determined as 100%; in experiment [2], 100%; on MTOR (human), 87%.

As for `N#Cc1c(NC(=O)c2cccc3ccccc23)sc2c1CCCC2`, the kinase still bound, per cent of control stood at 89% on WNK1 (human); 100% on GSG2 (human); 100% at SGK1 (human); 100% at RPS6KA3 KD2 (human); 100% on WNK3 (human); 71% on CASK (human). Also, the kinase still bound, per cent of control at BUB1 (human) and on MTOR (human) was 100% in each case.

Turning to `O=C(NOC[C@H](O)CO)c1ccc(F)c(F)c1Nc1ccc(I)cc1F`, the kinase still bound, per cent of control is 92% at WNK1 (human); 100% at GSG2 (human); 100% at SGK1 (human); 100% at RPS6KA3 KD2 (human); 100% on WNK3 (human); 67% at CASK (human). Also, the kinase still bound, per cent of control on BUB1 (human) and on MTOR (human) was 100% each time.

`COc1cc(C(=O)NC2CCN(C)CC2)ccc1Nc1ncc2c(n1)N(C1CCCC1)CCC(=O)N2C(C)C`: the kinase still bound, per cent of control (on ABL1 (human); in experiment [1]; in [2]) was 100% in each case.
